Results: patent US20250340560A1, “SUBSTITUTED PYRAZOLO[1,5-a]PYRIMIDINES AS BRUTON'S TYROSINE KINASE MODULATORS” (BEIGENE SWITZERLAND GMBH, priority 2013, published 2025)

target: Recombinant Btk (Homo sapiens (Human), UniProt Q06187); test: BTK kinase assay (TR-FRET); details: read-out: IC50 (nM) Btk; 1 hour pre-incubation, ATP at Km
Sequence (Q06187 whole entry): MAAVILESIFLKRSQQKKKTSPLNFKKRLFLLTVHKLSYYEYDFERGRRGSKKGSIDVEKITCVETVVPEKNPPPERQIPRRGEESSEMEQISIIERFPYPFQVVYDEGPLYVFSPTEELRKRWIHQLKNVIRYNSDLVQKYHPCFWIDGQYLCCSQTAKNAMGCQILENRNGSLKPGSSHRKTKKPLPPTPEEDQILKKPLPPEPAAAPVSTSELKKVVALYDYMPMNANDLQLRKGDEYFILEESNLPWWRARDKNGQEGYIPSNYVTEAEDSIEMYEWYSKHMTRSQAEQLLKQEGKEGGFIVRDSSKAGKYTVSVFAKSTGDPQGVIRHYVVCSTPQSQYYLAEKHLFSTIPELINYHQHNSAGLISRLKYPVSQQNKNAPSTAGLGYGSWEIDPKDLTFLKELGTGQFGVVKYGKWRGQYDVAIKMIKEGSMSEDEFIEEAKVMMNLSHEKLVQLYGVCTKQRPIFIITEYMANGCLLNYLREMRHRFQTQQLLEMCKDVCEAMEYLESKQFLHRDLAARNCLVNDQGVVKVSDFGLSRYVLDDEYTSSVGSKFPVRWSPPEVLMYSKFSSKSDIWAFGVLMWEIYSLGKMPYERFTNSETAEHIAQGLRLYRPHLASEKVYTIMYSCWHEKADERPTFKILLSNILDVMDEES

Structure (SMILES)	IC50 [nM]
C=CC(=O)Nc1cc(Cl)ccc1C1CCNc2c(C(N)=O)c(-c3ccc(OCC4CC4)cc3)nn21 (centres unmarked) [Compound 147, 7-(2-Acrylamido-4-chlorophenyl)-2-(4-(cyclopropylmethoxy)phenyl)-4,5,6,7-tetrahydropyrazolo[1,5-a]pyrimidine-3-carboxamide]	2.7
C=CC(=O)Nc1cc(C)ccc1C1CCNc2c(C(N)=O)c(-c3ccc(OCC4CC4)cc3)nn21 (centres unmarked) [Compound 148, 7-(2-Acrylamido-4-methylphenyl)-2-(4-(cyclopropylmethoxy)phenyl)-4,5,6,7-tetrahydropyrazolo[1,5-a]pyrimidine-3-carboxamide]	5.6
C=CC(=O)Nc1ccccc1C1CCNc2c(C(N)=O)c(-c3ccccc3)nn21 (centres unmarked) [Compound 150, 7-(2-Acrylamidophenyl)-2-phenyl-4,5,6,7-tetrahydropyrazolo[1,5-a]pyrimidine-3-carboxamide]	4.7
C=CC(=O)Nc1ccccc1C1CCNc2c(C(N)=O)c(-c3ccc(F)c(Br)c3)nn21 (centres unmarked) [Compound 152, 7-(2-Acrylamidophenyl)-2-(3-bromo-4-fluorophenyl)-4,5,6,7-tetrahydropyrazolo[1,5-a]pyrimidine-3-carboxamide]	1.2
NC(=O)c1c(-c2ccc(F)c(Cl)c2)nn2c1NCCC2c1ccccc1NC(=O)/C=C/CN1CCCCC1 (centres unmarked) [Compound 153, (E)-2-(3-Chloro-4-fluorophenyl)-7-(2-(4-(piperidin-1-yl)but-2-enamido)phenyl)-4,5,6,7-tetrahydropyrazolo[1,5-a]pyrimidine-3-carboxamide]	6.1
C=CC(=O)Nc1ccccc1C1CCNc2c(C(N)=O)c(-c3ccc(Cl)c(F)c3)nn21 (centres unmarked) [Compound 154, 7-(2-Acrylamidophenyl)-2-(4-chloro-3-fluorophenyl)-4,5,6,7-tetrahydropyrazolo[1,5-a]pyrimidine-3-carboxamide]	1.2
C=CC(=O)Nc1ccccc1C1CCNc2c(C(N)=O)c(-c3cccc(Cl)c3)nn21 (centres unmarked) [Compound 155, 7-(2-Acrylamidophenyl)-2-(3-chlorophenyl)-4,5,6,7-tetrahydropyrazolo[1,5-a]pyrimidine-3-carboxamide]	0.96
C=CC(=O)Nc1ccccc1C1CCNc2c(C(N)=O)c(-c3ccc(Cl)c(Cl)c3)nn21 (centres unmarked) [Compound 156, 7-(2-Acrylamidophenyl)-2-(3,4-dichlorophenyl)-4,5,6,7-tetrahydropyrazolo[1,5-a]pyrimidine-3-carboxamide]	0.55
C=CC(=O)Nc1ccccc1C1CCNc2c(C(N)=O)c(-c3ccc(F)c(C)c3)nn21 (centres unmarked) [Compound 157, 7-(2-Acrylamidophenyl)-2-(4-fluoro-3-methylphenyl)-4,5,6,7-tetrahydropyrazolo[1,5-a]pyrimidine-3-carboxamide]	0.38
C=CC(=O)Nc1ccccc1C1CCNc2c(C(N)=O)c(-c3cc(F)c(F)c(Cl)c3)nn21 (centres unmarked) [Compound 158, 7-(2-Acrylamidophenyl)-2-(3-chloro-4.5-difluorophenyl)-4,5,6,7-tetrahydropyrazolo[1,5-a]pyrimidine-3-carboxamide]	2.9
C=CC(=O)Nc1ccccc1C1CCNc2c(C(N)=O)c(-c3ccc(Cl)c(OC)c3)nn21 (centres unmarked) [Compound 160, 7-(2-Acrylamidophenyl)-2-(4-chloro-3-methoxyphenyl)-4,5,6,7-tetrahydropyrazolo[1,5-a]pyrimidine-3-carboxamide]	0.49
C=CC(=O)Nc1ccccc1C1CCNc2c(C(N)=O)c(-c3ccc(C(F)(F)F)c(Cl)c3)nn21 (centres unmarked) [Compound 162, 7-(2-Acrylamidophenyl)-2-(3-chloro-4-(trifluoromethyl)phenyl)-4,5,6,7-tetrahydropyrazolo[1,5-a]pyrimidine-3-carboxamide]	2.1
C=CC(=O)Nc1ccccc1C1CCNc2c(C(N)=O)c(-c3ccc(Cl)c(C(F)(F)F)c3)nn21 (centres unmarked) [Compound 163, 7-(2-Acrylamidophenyl)-2-(4-chloro-3-(trifluoromethyl)phenyl)-4,5,6,7-tetrahydropyrazolo[1,5-a]pyrimidine-3-carboxamide]	7.3
COc1cc(-c2nn3c(c2C(N)=O)NCCC3c2ccccc2NC(=O)/C=C/CN(C)C)ccc1C (centres unmarked) [Compound 165, (E)-7-(2-(4-(Dimethylamino)but-2-enamido)phenyl)-2-(3-methoxy-4-methylphenyl)-4,5,6,7-tetrahydropyrazolo[1,5-a]pyrimidine-3-carboxamide]	1.6
C=CC(=O)Nc1ccccc1C1CCNc2c(C(N)=O)c(-c3cccc(OC)c3)nn21 (centres unmarked) [Compound 166, 7-(2-Acrylamidophenyl)-2-(3-methoxyphenyl)-4,5,6,7-tetrahydropyrazolo[1,5-a]pyrimidine-3-carboxamide]	2.7
C=CC(=O)Nc1ccccc1C1CCNc2c(C(N)=O)c(-c3cc(OC)c(OC)c(OC)c3)nn21 (centres unmarked) [Compound 167, 7-(2-Acrylamidophenyl)-2-(3,4,5-trimethoxyphenyl)-4,5,6,7-tetrahydropyrazolo[1,5-a]pyrimidine-3-carboxamide]	2.4

Structure (SMILES)	IC50 [nM]
C=CC(=O)Nc1ccccc1C1CCNc2c(C(N)=O)c(-c3ccc(OC)c(OC)c3)nn21 (centres unmarked) [Compound 168, 7-(2-Acrylamidophenyl)-2-(3,4-dimethoxyphenyl)-4,5,6,7-tetrahydropyrazolo[1,5-a]pyrimidine-3-carboxamide]	3.2
C=CC(=O)Nc1ccccc1C1CCNc2c(C(N)=O)c(-c3cc(Cl)c(OC)c(Cl)c3)nn21 (centres unmarked) [Compound 169, 7-(2-Acrylamidophenyl)-2-(3,5-dichloro-4-methoxyphenyl)-4,5,6,7-tetrahydropyrazolo[1,5-a]pyrimidine-3-carboxamide]	0.15
NC(=O)c1c(-c2ccc(Oc3ccccc3)cc2)nn2c1NCCC2C1CCN(C(=O)/C=C/CN2CCCCC2)CC1 (centres unmarked) [Compound 170, (E)-2-(4-Phenoxyphenyl)-7-(1-(4-(piperidin-1-yl)but-2-enoyl)piperidin-4-yl)-4,5,6,7-tetrahydropyrazolo[1,5-a]pyrimidine-3-carboxamide]	3.8
C=CC(=O)N1CCC(C2CCNc3c(C(N)=O)c(-c4ccc(C)c(OC)c4)nn32)CC1 (centres unmarked) [Compound 174, 7-(1-Acryloylpiperidin-4-yl)-2-(3-methoxy-4-methylphenyl)-4,5,6,7-tetrahydropyrazolo[1,5-a]pyrimidine-3-carboxamide]	4.8
C=CC(=O)N1CC(C2(C)CCNc3c(C(N)=O)c(-c4ccc(Oc5ccccc5)cc4)nn32)C1 (centres unmarked) [Compound 175, 7-(1-Acryloylazetidin-3-yl)-7-methyl-2-(4-phenoxyphenyl)-4,5,6,7-tetrahydropyrazolo[1,5-a]pyrimidine-3-carboxamide]	1.2
NC(=O)c1c(-c2ccc(Oc3ccccc3)cc2)nn2c1NCC[C@H]2C1CCN(C(=O)CCCl)CC1 [Compound 177, (S)-7-(1-(3-chloropropanoyl)piperidin-4-yl)-2-(4-phenoxyphenyl)-4,5,6,7-tetrahydropyrazolo[1,5-a]pyrimidine-3-carboxamide]	5.7
CC#CC(=O)N1CCC(C2CCNc3c(C(N)=O)c(-c4ccc(Oc5ccc(F)cc5F)cc4)nn32)CC1 (centres unmarked) [Compound 179, 7-(1-(But-2-ynoyl)piperidin-4-yl)-2-(4-(2,4-difluorophenoxy)phenyl)-4,5,6,7-tetrahydropyrazolo[1,5-a]pyrimidine-3-carboxamide]	48
N#CCC(=O)N1CCC([C@@H]2CCNc3c(C(N)=O)c(-c4ccc(Oc5ccccc5)cc4)nn32)CC1 [Compound 180, (S)-7-(1-(2-Cyanoacetyl)piperidin-4-yl)-2-(4-phenoxyphenyl)-4,5,6,7-tetrahydropyrazolo[1,5-a]pyrimidine-3-carboxamide]	87
N#CC(=CC1CC1)C(=O)N1CCC([C@@H]2CCNc3c(C(N)=O)c(-c4ccc(Oc5ccccc5)cc4)nn32)CC1 [Compound 181, (S)-7-(1-(2-cyano-3-cyclopropylacryloyl)piperidin-4-yl)-2-(4-phenoxyphenyl)-4,5,6,7-tetrahydropyrazolo[1,5-a]pyrimidine-3-carboxamide]	25
N#CN1CCC([C@@H]2CCNc3c(C(N)=O)c(-c4ccc(Oc5ccccc5)cc4)nn32)CC1 [Compound 182, (S)-7-(1-cyanopiperidin-4-yl)-2-(4-phenoxyphenyl)-4,5,6,7-tetrahydropyrazolo[1,5-a]pyrimidine-3-carboxamide]	124
CC#CC(=O)N1CC(C2CCNc3c(C(N)=O)c(-c4ccc(Oc5ccccc5)cc4)nn32)C1 (centres unmarked) [Compound 184, 7-(1-(But-2-ynoyl)azetidin-3-yl)-2-(4-phenoxyphenyl)-4,5,6,7-tetrahydropyrazolo[1,5-a]pyrimidine-3-carboxamide]	4.7
CC#CC(=O)NCC1CCNc2c(C(N)=O)c(-c3ccc(Oc4ccccc4)cc3)nn21 (centres unmarked) [Compound 185, 7-(But-2-ynamidomethyl)-2-(4-phenoxyphenyl)-4,5,6,7-tetrahydropyrazolo[1,5-a]pyrimidine-3-carboxamide]	4.3
CCC#CC(=O)N1CCC([C@@H]2CCNc3c(C(N)=O)c(-c4ccc(Oc5ccccc5)cc4)nn32)CC1 [Compound 186, (S)-7-(1-(Pent-2-ynoyl)piperidin-4-yl)-2-(4-phenoxyphenyl)-4,5,6,7-tetrahydropyrazolo[1,5-a]pyrimidine-3-carboxamide]	1.1
NC(=O)c1c(-c2ccc(Oc3ccccc3)cc2)nn2c1NCC[C@H]2C1CCN(C(=O)C#CCN2CCCC2)CC1 [Compound 187, (S)-2-(4-Phenoxyphenyl)-7-(1-(4-(pyrrolidin-1-yl)but-2-ynoyl)piperidin-4-yl)-4,5,6,7-tetrahydropyrazolo[1,5-a]pyrimidine-3-carboxamide]	2.1
CN(C)CC#CC(=O)N1CCC([C@@H]2CCNc3c(C(N)=O)c(-c4ccc(Oc5ccccc5)cc4)nn32)CC1 [Compound 188, (S)-7-(1-(4-(Dimethylamino)but-2-ynoyl)piperidin-4-yl)-2-(4-phenoxyphenyl)-4,5,6,7-tetrahydropyrazolo[1,5-a]pyrimidine-3-carboxamide]	1.1
CC#CC(=O)N1CC(C2CCNc3c(C(N)=O)c(-c4ccc(Oc5ccc(F)cc5F)cc4)nn32)C1 (centres unmarked) [Compound 189, 7-(1-(But-2-ynoyl)azetidin-3-yl)-2-(4-(2,4-difluorophenoxy)phenyl)-4,5,6,7-tetrahydropyrazolo[1,5-a]pyrimidine-3-carboxamide]	42
